This passage reports IC50 results from ChEMBL document CHEMBL1201862, “PubChem BioAssay data set” (2004).

The IC50 is the concentration at which inhibition is half-maximal.

The assay concerns the target Envelope glycoprotein gp160 (Human immunodeficiency virus 1, UniProt Q6QLK5). The assay can be described thus: cell-free HIV fusion peptide-binding blockers – biochemical, uHTS, fluorescence dequenching, […] (AID 1986).

Calls of active or inactive are those of the source. Cut-off read from the data, not from the text of the source: actives have a measured IC50 and inactives only a lower limit.

Chain of Envelope glycoprotein gp160 (Q6QLK5 whole entry, the tested form may be a part): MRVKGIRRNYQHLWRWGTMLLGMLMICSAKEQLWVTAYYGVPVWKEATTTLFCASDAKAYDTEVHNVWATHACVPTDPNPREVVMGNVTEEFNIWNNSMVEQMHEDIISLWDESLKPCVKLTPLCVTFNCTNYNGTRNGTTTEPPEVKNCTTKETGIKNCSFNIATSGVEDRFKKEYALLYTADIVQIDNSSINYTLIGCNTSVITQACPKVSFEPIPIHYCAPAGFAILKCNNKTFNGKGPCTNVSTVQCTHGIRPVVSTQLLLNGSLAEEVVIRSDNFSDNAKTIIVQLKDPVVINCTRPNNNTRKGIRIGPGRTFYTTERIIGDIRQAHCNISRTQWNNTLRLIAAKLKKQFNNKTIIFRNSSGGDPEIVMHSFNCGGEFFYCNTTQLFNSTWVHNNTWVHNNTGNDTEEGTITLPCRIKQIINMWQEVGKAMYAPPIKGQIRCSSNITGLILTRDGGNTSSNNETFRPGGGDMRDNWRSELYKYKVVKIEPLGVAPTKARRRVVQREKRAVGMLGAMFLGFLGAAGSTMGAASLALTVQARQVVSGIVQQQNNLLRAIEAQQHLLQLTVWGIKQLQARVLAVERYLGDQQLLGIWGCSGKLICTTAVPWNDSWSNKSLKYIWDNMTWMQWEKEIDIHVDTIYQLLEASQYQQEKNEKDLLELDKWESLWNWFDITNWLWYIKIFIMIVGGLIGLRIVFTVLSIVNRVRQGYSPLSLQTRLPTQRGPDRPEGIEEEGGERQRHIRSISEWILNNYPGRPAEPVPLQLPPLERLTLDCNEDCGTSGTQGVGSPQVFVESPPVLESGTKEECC

`O=C(O)CN1C(=O)/C(=C\c2ccccc2OCc2ccc(Cl)cc2Cl)SC1=S`: the IC50 is 16.1 µM (active).
